Patent US20160002273A1, “THIENO[3,2-D]PYRIMIDINE-6-CARBOXAMIDES AND ANALOGUES AS SIRTUIN MODULATORS” (GLAXOSMITHKLINE LLC, priority 2013, published 2016)
Where two headings read alike, the source gives them in different places.

Key:
[1] = target: T1, SIRT2 (Homo sapiens, UniProt Q8IXJ6); test: SIRT2 deacetylation of Trp 5-mer peptide, OAADPr mass spec assay; type: biochemical; parameters: His-SIRT2(1-389)
T1 sequence (Q8IXJ6 1-389): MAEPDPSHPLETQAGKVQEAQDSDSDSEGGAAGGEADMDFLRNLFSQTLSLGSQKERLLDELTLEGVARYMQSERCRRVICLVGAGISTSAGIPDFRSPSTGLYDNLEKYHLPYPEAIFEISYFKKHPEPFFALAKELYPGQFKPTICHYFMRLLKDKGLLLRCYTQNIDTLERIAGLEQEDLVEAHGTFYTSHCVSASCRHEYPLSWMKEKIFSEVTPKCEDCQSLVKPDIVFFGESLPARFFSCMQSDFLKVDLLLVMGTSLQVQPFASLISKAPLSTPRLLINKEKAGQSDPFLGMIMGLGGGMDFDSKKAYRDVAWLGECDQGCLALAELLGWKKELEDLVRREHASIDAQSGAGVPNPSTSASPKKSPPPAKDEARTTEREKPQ

[2] = target: T2, SIRT1 (Homo sapiens, UniProt Q96EB6); test: SIRT1 deacetylation of Trp 5-mer peptide, OAADPr mass spec assay
T2 sequence (Q96EB6 1-747): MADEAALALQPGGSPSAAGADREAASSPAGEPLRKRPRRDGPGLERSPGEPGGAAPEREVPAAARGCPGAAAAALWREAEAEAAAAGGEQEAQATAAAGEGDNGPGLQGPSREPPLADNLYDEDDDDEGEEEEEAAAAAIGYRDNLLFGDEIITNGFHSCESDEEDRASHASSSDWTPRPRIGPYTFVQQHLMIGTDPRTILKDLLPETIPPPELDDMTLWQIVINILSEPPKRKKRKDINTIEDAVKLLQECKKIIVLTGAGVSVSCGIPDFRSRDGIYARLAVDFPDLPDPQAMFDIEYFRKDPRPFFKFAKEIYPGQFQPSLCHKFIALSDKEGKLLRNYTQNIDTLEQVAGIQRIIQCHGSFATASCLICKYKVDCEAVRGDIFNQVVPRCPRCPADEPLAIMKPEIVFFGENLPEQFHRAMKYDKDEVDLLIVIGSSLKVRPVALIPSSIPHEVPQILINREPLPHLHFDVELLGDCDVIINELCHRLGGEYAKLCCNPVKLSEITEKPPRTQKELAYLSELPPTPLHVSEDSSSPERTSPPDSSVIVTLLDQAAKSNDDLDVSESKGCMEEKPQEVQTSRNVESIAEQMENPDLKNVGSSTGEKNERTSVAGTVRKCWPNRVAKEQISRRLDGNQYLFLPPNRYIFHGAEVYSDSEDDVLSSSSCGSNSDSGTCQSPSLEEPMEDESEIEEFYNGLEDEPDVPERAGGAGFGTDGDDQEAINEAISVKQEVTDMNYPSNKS
Procedure: All assays were performed at room temperature in reaction buffer (50 mM HEPES, pH 7.5, 150 mM NaCl, 1 mM DTT, 0.05% BSA). […] To prepare the assays for analysis, 20 μL of reaction volume was mixed in 80 μL of 50:50 acetonitrile:methanol mixture. […] Peak data was integrated using RapidFire Integrator software (Agilent, Santa Clara, Calif.).

[3] = Trp 5-mer peptide and NAD at KM, mean of at least three determinations, read-out: IC50 (μM) SIRT2
[4] = Trp 5-mer peptide, class symbols, read-out: Trp SIRT2_IC50
[5] = Trp SIRT1_IC50, Trp 5-mer peptide, class symbols
[6] = read-out: IC50 (μM) SIRT1, Trp 5-mer peptide and NAD at KM, mean of at least three determinations
[7] = Trp SIRT2_IC50, Trp 5-mer peptide, class symbols
[8] = IC50 (μM) SIRT1, Trp 5-mer peptide and NAD at KM, mean of at least three determinations

CC(C)(C)OC(=O)NCCC1CCN(c2ncnc3cc(C(N)=O)sc23)CC1 [Compound 15a, tert-butyl (2-(1-(6-carbamoylthieno[3,2-d]pyrimidin-4-yl)piperidin-4-yl)ethyl)carbamate]
IC50 [1, 3]: 0.005 µM | IC50 [1, 4]: < 1 µM | IC50 [2, 5]: < 1 µM | IC50 [2, 6]: 0.017 µM

NCCC1CCN(c2ncnc3cc(C(N)=O)sc23)CC1 [Compound 16a, 4-(4-(2-aminoethyl)piperidin-1-yl)thieno[3,2-d]pyrimidine-6-carboxamide]
IC50 [1, 3]: 0.11 µM | IC50 [1, 7]: < 1 µM | IC50 [2, 5]: 1 to 10 µM | IC50 [2, 6]: 1.6 µM

CC(C)(C)OC(=O)c1ccc(C(=O)NCCC2CCN(c3ncnc4cc(C(N)=O)sc34)CC2)s1 [Compound 17, tert-butyl 5-((2-(1-(6-carbamoylthieno[3,2-d]pyrimidin-4-yl)piperidin-4-yl)ethyl)carbamoyl)thiophene-2-carboxylate]
IC50 ([1]; IC50 (μM) SIRT2, Trp 5-mer peptide and NAD at KM, mean of at least three determinations): 0.001 µM | IC50 [1, 7]: < 1 µM | IC50 [2, 8]: 0.007 µM | IC50 [2, 5]: < 1 µM

NC(=O)c1cc2ncnc(N3CCC(CCNC(=O)c4ccc(C(=O)O)s4)CC3)c2s1 [Compound 18, 5-((2-(1-(6-carbamoylthieno[3,2-d]pyrimidin-4-yl)piperidin-4-yl)ethyl)carbamoyl)thiophene-2-carboxylic acid]
IC50 [1, 3]: 0.004 µM | IC50 [1, 4]: < 1 µM | IC50 [2, 5]: < 1 µM | IC50 [2, 6]: 0.014 µM

NC(=O)c1cc2ncnc(N3CCC(CCNC(=O)c4cccs4)CC3)c2s1 [Compound 19, 4-(4-(2-(thiophene-2-carboxamido)ethyl)piperidin-1-yl)thieno[3,2-d]pyrimidine-6-carboxamide]
IC50 [1, 3]: 0.007 µM | IC50 [1, 4]: < 1 µM | IC50 [2, 8]: 0.006 µM | IC50 [2, 5]: < 1 µM

CC(=O)NCCC1CCN(c2ncnc3cc(C(N)=O)sc23)CC1 [Compound 20]
IC50 [1, 3]: 0.023 µM | IC50 [1, 4]: < 1 µM | IC50 [2, 5]: < 1 µM | IC50 [2, 6]: 0.11 µM

CC(=O)NCCN1CCN(c2ncnc3cc(C(N)=O)sc23)CC1 [Compound 24]
IC50 [1, 3]: 0.17 µM | IC50 [1, 4]: < 1 µM | IC50 [2, 5]: 1 to 10 µM | IC50 [2, 6]: 1.6 µM

CC(=S)NCCN1CCN(c2ncnc3cc(C(N)=O)sc23)CC1 [Compound 26]
IC50 [1, 3]: 0.13 µM | IC50 [1, 4]: < 1 µM | IC50 [2, 5]: < 1 µM | IC50 [2, 6]: 0.49 µM

CC(C)(C)C(=O)NCC1CCN(c2ncnc3cc(C(N)=O)sc23)CC1 [Compound 27, 4-(4-(pivalamidomethyl)piperidin-1-yl)thieno[3,2-d]pyrimidine-6-carboxamide]
IC50 [1, 3]: 0.74 µM | IC50 [1, 4]: < 1 µM | IC50 [2, 5]: 1 to 10 µM | IC50 [2, 6]: 4.3 µM

CC(C)(C)C(=O)NCCCC1CCN(c2ncnc3cc(C(N)=O)sc23)CC1 [Compound 29, 4-(4-(3-pivalamidopropyl)piperidin-1-yl)thieno[3,2-d]pyrimidine-6-carboxamide]
IC50 [1, 3]: 0.016 µM | IC50 [1, 4]: < 1 µM | IC50 [2, 5]: < 1 µM | IC50 [2, 6]: 0.042 µM

CC(C)(C)C(=O)NCCN1CCN(c2ncnc3cc(C(N)=O)sc23)CC1 [Compound 30, 4-(4-(2-pivalamidoethyl)piperazin-1-yl)thieno[3,2-d]pyrimidine-6-carboxamide]
IC50 [1, 3]: 0.017 µM | IC50 [1, 4]: < 1 µM | IC50 [2, 5]: < 1 µM | IC50 [2, 6]: 0.12 µM

CS(=O)(=O)NCCC1CCN(c2ncnc3cc(C(N)=O)sc23)CC1 [Compound 31]
IC50 [1, 3]: 0.001 µM | IC50 [1, 4]: < 1 µM

CS(=O)(=O)NCCN1CCN(c2ncnc3cc(C(N)=O)sc23)CC1 [Compound 32, 4-(4-(2-(methylsulfonamido)ethyl)piperazin-1-yl)thieno[3,2-d]pyrimidine-6-carboxamide 2,2,2-trifluoroacetate]
IC50 [1, 3]: 0.053 µM | IC50 [1, 4]: < 1 µM | IC50 [2, 5]: < 1 µM | IC50 [2, 6]: 0.38 µM

NC(=O)c1cc2ncnc(N3CCC(CN4CCCC4)CC3)c2s1 [Compound 33]
IC50 [1, 3]: 0.22 µM | IC50 [1, 4]: < 1 µM | IC50 [2, 5]: < 1 µM | IC50 [2, 6]: 0.73 µM

NC(=O)c1cc2ncnc(N3CCC(CCN4CCCC4)CC3)c2s1 [Compound 34]
IC50 [1, 3]: 0.067 µM | IC50 [1, 4]: < 1 µM | IC50 [2, 5]: < 1 µM | IC50 [2, 6]: 0.11 µM
